# Measured values as given in PMC7473772 (eLife, 2020).
# Where “and” joins values, the source holds several entries; their conditions need not be identical. Equal values may be shown once. Read-outs that look alike come from different tables or passages of the source.
# Columns and labels:
# Format in all cases: cell-based, Trypanosoma brucei brucei
# [1] = tested on: tbaqp2/tbaqp3 null cells; assay: microbe, parasite or virus in culture
# [2] = tested on: tbaqp2/tbaqp3 null cells expressing TbAQP2WT; assay: microbe, parasite or virus in culture
# [3] = tested on: tbaqp2/tbaqp3 null cells expressing TbAQP2^S131P/S263A
# [4] = tested on: tbaqp2/tbaqp3 null cells expressing TbAQP2^L258Y
# [5] = tested on: tbaqp2/tbaqp3 null cells expressing TbAQP2^I110W
# [6] = tested on: tbaqp2/tbaqp3 null cells expressing TbAQP2^L264R
# [7] = tested on: tbaqp2/tbaqp3 null cells expressing TbAQP2^I190T
# [8] = tested on: tbaqp2/tbaqp3 null cells expressing TbAQP2^W192G
# [9] = tested on: tbaqp2/tbaqp3 null cells expressing TbAQP2^I190T/W192G
# [10] = tested on: tbaqp2/tbaqp3 null cells expressing TbAQP2 L84W; assay: microbe, parasite or virus in culture
# [11] = tested on: tbaqp2/tbaqp3 null cells expressing TbAQP2 L118W; assay: microbe, parasite or virus in culture
# [12] = tested on: tbaqp2/tbaqp3 null cells expressing TbAQP2 L218W; assay: microbe, parasite or virus in culture
# [13] = tested on: tbaqp2/tbaqp3 null cells expressing TbAQP2 L84M; assay: microbe, parasite or virus in culture
# [14] = tested on: tbaqp2/tbaqp3 null cells expressing TbAQP2 L118M; assay: microbe, parasite or virus in culture
# [15] = tested on: tbaqp2/tbaqp3 null cells expressing TbAQP2 L218M; assay: microbe, parasite or virus in culture
# [16] = tested on: tbaqp2/tbaqp3 null cells expressing TbAQP3
# [17] = tested on: tbaqp2/tbaqp3 null cells expressing TbAQP3^W102I/R256L
# [18] = tested on: tbaqp2/tbaqp3 null cells expressing TbAQP3^W102I/R256L/Y250L
structure (smiles),measurement,setting,value
Cl.Cl.NCCS[As](SCCN)c1ccc(Nc2nc(N)nc(N)n2)cc1 [Cymelarsan],"EC50 (% of aqp2/aqp3 null), MEAN",[1],100.00 % of aqp2/aqp3 null
same,"EC50 (% of aqp2/aqp3 null), single repeats",[1],100.09 % of aqp2/aqp3 null and 107.11 % of aqp2/aqp3 null and 92.80 % of aqp2/aqp3 null and 105.96 % of aqp2/aqp3 null and 97.29 % of aqp2/aqp3 null and 96.75 % of aqp2/aqp3 null and 92.36 % of aqp2/aqp3 null and 100.54 % of aqp2/aqp3 null
same,"EC50, MEAN (% KO)",[1],100.00 % KO
same,"EC50, percent of AQP2/3 null EC50",[1],100.00%
same,"EC50 as percent of AQP2/3 null EC50, MEAN",[1],100.00%
same,"EC50 as percent of AQP2/3 null EC50, single repeats",[1],100.0%
same,EC50,"[1]; read-out: EC50, MEAN",19.9 nM
same,"EC50 (% of aqp2/aqp3 null), MEAN",[2],14.85 % of aqp2/aqp3 null
same,"EC50, MEAN (% KO)",[2],21.40 % KO
same,"EC50, percent of AQP2/3 null EC50",[2],11.82% and 12.84% and 17.72% and 13.38%
same,"EC50 as percent of AQP2/3 null EC50, MEAN",[2],12.527% and 12.55%
same,"EC50, percent of AQP2/3 null EC50",[3],58.29%
same,"EC50, percent of AQP2/3 null EC50",[4],33.16%
same,"EC50, percent of AQP2/3 null EC50",[5],106.64%
same,"EC50, percent of AQP2/3 null EC50",[6],99.62%
same,"EC50 as percent of AQP2/3 null EC50, MEAN",[7],64.67%
same,"EC50 as percent of AQP2/3 null EC50, MEAN",[8],42.01%
same,"EC50 as percent of AQP2/3 null EC50, single repeats",[8],38.89% and 33.6754% and 48.5349% and 30.3438% and 47.7536% and 38.5508% and 45.4365% and 52.8716%
same,"EC50 as percent of AQP2/3 null EC50, MEAN",[9],95.01%
same,"EC50 as percent of AQP2/3 null EC50, single repeats",[9],84.5691% and 96.0784% and 104.69% and 94.6857%
same,"EC50 (% of aqp2/aqp3 null), MEAN",[10],100.47 % of aqp2/aqp3 null
same,"EC50 (% of aqp2/aqp3 null), single repeats",[10],103.60 % of aqp2/aqp3 null and 103.34 % of aqp2/aqp3 null and 94.46 % of aqp2/aqp3 null
same,EC50,"[10]; read-out: EC50, MEAN",20 nM
same,EC50,"[10]; read-out: EC50, single repeats",20.6 nM (2×) and 18.8 nM
same,"EC50 (% of aqp2/aqp3 null), MEAN",[11],92.14 % of aqp2/aqp3 null
same,"EC50 (% of aqp2/aqp3 null), single repeats",[11],88.70 % of aqp2/aqp3 null and 124.82 % of aqp2/aqp3 null and 62.91 % of aqp2/aqp3 null
same,EC50,"[11]; read-out: EC50, MEAN",18.4 nM
same,EC50,"[11]; read-out: EC50, single repeats",17.7 nM and 24.9 nM and 12.5 nM
same,"EC50 (% of aqp2/aqp3 null), MEAN",[12],94.01 % of aqp2/aqp3 null
same,"EC50 (% of aqp2/aqp3 null), single repeats",[12],100.13 % of aqp2/aqp3 null and 113.78 % of aqp2/aqp3 null and 68.13 % of aqp2/aqp3 null
same,EC50,"[12]; read-out: EC50, MEAN",18.7 nM
same,EC50,"[12]; read-out: EC50, single repeats",20 nM and 22.7 nM and 13.6 nM
same,"EC50, MEAN (% KO)",[13],62.94 % KO
same,EC50,"[13]; read-out: EC50, MEAN",13.9 nM
same,EC50,"[13]; read-out: EC50, single repeats",14.7 nM and 14.5 nM and 12.4 nM and 13.7 nM and 10.5 nM and 17.1 nM
same,"EC50 (% of aqp2/aqp3 null), single repeats",[14],106.00 % of aqp2/aqp3 null and 109.38 % of aqp2/aqp3 null and 101.17 % of aqp2/aqp3 null and 149.03 % of aqp2/aqp3 null and 147.52 % of aqp2/aqp3 null
same,"EC50, MEAN (% KO)",[14],122.62 % KO
same,EC50,"[14]; read-out: EC50, MEAN",34.3 nM
same,EC50,"[14]; read-out: EC50, single repeats",34.5 nM and 35.6 nM and 32.9 nM and 24.6 nM and 24.4 nM
same,"EC50, MEAN (% KO)",[15],58.15 % KO
same,EC50,"[15]; read-out: EC50, MEAN",11.2 nM
same,EC50,"[15]; read-out: EC50, single repeats",11.4 nM and 11.3 nM and 10.9 nM and 12.3 nM and 12.4 nM and 15.8 nM
same,"EC50, percent of AQP2/3 null EC50",[16],114 ± 5%
same,"EC50, percent of AQP2/3 null EC50",[17],105 ± 8%
same,"EC50, percent of AQP2/3 null EC50",[18],159 ± 8%
